# Assay: In vivo pharmacokinetics experiment of CBD microneedle in a rat
# Design: species or system SD rat
# Conditions: gavage group (oral administration), FIG. 7
structure (smiles),measurement,value
"C=C(C)[C@@H]1CCC(C)=C[C@H]1c1c(O)cc(CCCCC)cc1O [CBD, cannabidiol]",time drug concentration in plasma is maintained,2 days

# Source: US12138341B1 (Technical Institute of Physics and Chemistry, CAS, priority 2023, dated 2024)
